The NIST ThermoML archive (doi:10.1021/je040006u)

Test: xn = mol fraction of the nth substance listed
Settings: 101.3 kPa, Liquid, Pycnometric method

CCCNCCC [dipropylamine] + COCCO
mass density [kg/m3]
Settings | 291.15 K | 293.15 K | 298.15 K | 303.15 K | 308.15 K
x2 = 0 | 738.47 | 737.2 | 732.56 | 728.2 | 723.64
x2 = 0.0501 | 746.83 | 745.26 | 740.37 | 735.86 | 731.07
x2 = 0.1 | 754.98 | 753.42 | 748.52 | 743.91 | 739.04
x2 = 0.1502 | 763.4 | 761.9 | 756.9 | 752.27 | 747.36
x2 = 0.2001 | 772.06 | 770.51 | 765.5 | 760.85 | 755.94
x2 = 0.2508 | 781.14 | 779.61 | 774.59 | 769.92 | 764.98
x2 = 0.2999 | 790.26 | 788.66 | 783.68 | 778.97 | 774.07
x2 = 0.3502 | 799.92 | 798.35 | 793.28 | 788.57 | 783.65
x2 = 0.4 | 809.92 | 808.21 | 803.2 | 798.45 | 793.51
x2 = 0.45 | 820.34 | 818.67 | 813.61 | 808.82 | 803.85
x2 = 0.4999 | 831.06 | 829.4 | 824.3 | 819.53 | 814.5
x2 = 0.5507 | 842.47 | 840.75 | 835.6 | 830.8 | 825.78
x2 = 0.5982 | 853.45 | 851.69 | 846.6 | 841.77 | 836.69
x2 = 0.6502 | 866.02 | 864.26 | 859.11 | 854.24 | 849.17
x2 = 0.6999 | 878.41 | 876.59 | 871.47 | 866.58 | 861.5
x2 = 0.7489 | 891.21 | 889.34 | 884.21 | 879.3 | 874.18
x2 = 0.8015 | 905.66 | 903.7 | 898.54 | 893.64 | 888.51
x2 = 0.8496 | 919.22 | 917.32 | 912.15 | 907.23 | 902.13
x2 = 0.8997 | 934.42 | 932.35 | 927.21 | 922.3 | 917.11
x2 = 0.9497 | 950.19 | 948.22 | 943.1 | 938.3 | 933.24
